Data: publication PMC5413848, “Optimization of intestinal microsomal preparation in the rat: A systematic approach to assess the influence of various methodologies on metabolic activity and scaling factors” (Biopharmaceutics & Drug Disposition, 2017)
“And” between values parts separate entries of the source, which are not always exact repeats. Equal values may be shown once.

Assays:
[1] = design: method as in PMID 11587497; details: cited from earlier work
[2] = design: method as in PMID 11587497; details: Wistar rat intestinal microsomes prepared by elution, 30 cm intestine; cited from earlier work
[3] = CYP activity: testosterone metabolite formation in rat intestinal microsomes; type: in vitro ADME; details: for Maximal rate of testosterone metabolite formation: 100 μM testosterone, 1 mg/ml
Method: The CYP enzyme activities were determined for the in‐house and commercial intestinal microsomes using the probe substrate testosterone. Testosterone metabolites and the respective rat cyp isoforms responsible for their formation are shown in Supplemental material Table 1 33. […] The reactions were initiated by the addition of testosterone. Samples were taken at 5, 15, 30 and 60 min. […] Following optimization of the bioanalytical methodology to improve reproducibility and sensitivity based on increasing the efficiency of protein precipitation 37, the samples were quenched 1:2 (sample: quench) in ice cold acetonitrile containing internal standard (1 μM 11‐β OH TEST) and stored overnight at −20°C. The following day, the plates were spun at 3000 rpm for 15 min, and 50 μl supernatant was diluted in 200 μl UPH2O. Samples were quantified using a Waters Acquity UPLC system with a PDA coupled to a G2 Q‐ToF MS (Waters, Milford, MA, USA), and a Acquity UPLC BEH C18 column, 130 Å, 1.7 μm, 2.1 mm × 100 mm and Acquity UPLC column with an in‐Line Filter Kit made up of the same phase (Waters). The sample (25 μl) was detected using an electrospray interface in positive mode, and source and desolvation temperatures, and desolvation and cone gas flows were 120°C and 400°C, and 800 l/h and 20 l/h, respectively. The cone voltage was 30 V. The elution times and LLOQ of testosterone and its hydroxy metabolites are shown in Supplemental material Table 2. The quantification of testosterone metabolites listed in Supplemental material Table 1 was made using standard curves (5–5000 pmol/ml) prepared from no cofactor added microsomes and prepared identically to the assay samples.

[4] = Substrate depletion in commercial Han Wistar rat intestinal microsomes, combined or individual CYP and UGT cofactors; details: for microsomal CLint at 1 μM: male, Han Wistar, rat, microsomes, pH 7.4, CL int,u, Commercial Han Wistar pool, 1 mg/ml, 1 μM compound
Method: (§1) Microsomes prepared previously via the optimized method (preparation method 8) were combined to form pool 1 (n = 9 rats). A second set of three preparations was combined to form pool 2 (n = 9 rats). Intestinal microsomes were also prepared from intestinal tissue flash‐frozen in tubes on arrival in the laboratory and kept at −80°C until thawing on ice on the morning of preparation, (n = 3 occasions of n = 3 samples). In addition, for comparative purposes microsomes were also prepared from scraped intestinal tissues. Microsomes were prepared after cutting along the length of intestine and gently scraping the intestinal epithelial with a glass microscope slide (n = 1 occasion, n = 3 samples). Commercially available pooled intestinal microsomes were also used as a comparator to those produced in‐house. […] The microsomes were stored at −80°C prior to experiments.
(§2) Midazolam and 7‐hydroxycoumarin were both incubated at 1 mg/ml and 0.5 mg/ml. The microsomes were incubated on ice with alamethacin (50 μg/mg) for 15 min. […] The samples were quenched with ice cold acetonitrile (3:1 quench to sample) containing the internal standard (AZ1). The total incubation time was 40 min. Quenched samples were stored overnight at −20°C. The following day, the samples were diluted with 200 μl UPH2O, and spun at 3000 rpm (Sorvall legend RT centrifuge) for 15 min, and 200 μl of supernatant taken for analysis.

[5] = In vitro-in vivo extrapolation of rat intestinal unbound intrinsic clearance (CL int,u,gut); type: in vitro ADME
Source text: The CL int,u values were scaled to give CL int,u,gut using scaling factors for the corresponding microsomal pool (Eq. (5)). The use of scalars from the mean of both pools was also investigated, and was also used for scaling of commercial microsome CL int,u data.
(5) CLint,u,G=CLuint⋅MPPGI⋅Intestine Segment Weight

[6] = Nonspecific protein binding in rat intestinal microsomes (96-well micro-equilibrium dialysis); details: rat intestinal microsomes 1 mg/ml, compound 1 μM
Method: Nonspecific protein binding was determined in microsomes (1 mg/ml) using high throughput 96‐well micro‐equilibrium dialysis methodology (HTDialysis, LLC, Gales Ferry, CT, USA). These experiments used dialysis membrane strips with 12–14 kDa molecular mass cut‐off (HTDialysis). The microsomes were constituted in 0.1 M phosphate buffer (pH 7.4). The final concentrations of the test compounds was 1 μM. Microsomes containing the test compound were aliquoted into donor wells in triplicate, and buffer placed in the acceptor wells. The plate was incubated at 37°C and left to equilibrate on a plate shaker (450 rpm) for 4 h. Samples from both the acceptor and donor sides of the membrane were then transferred to 96‐well plates and quenched in acetonitrile containing internal standard (AZ1). The same sample preparation and LC–MS/MS methodology was used as described for the microsomal incubations. Compound MS transitions and retention times are reported in Supplemental material Table 3. Fuinc was calculated as the ratio of acceptor to donor both normalized for internal standard as described previously 41. Correction for protein binding for depletion experiments undertaken at 0.5 mg/ml were made using Equation (4).
(4) fumic,2=1/[P]mic,2/Pmic,1×1−fumic,1/fumic,1+1
where mic,1 denotes 1 mg/ml and mic,2 is 0.5 mg/ml.

[7] = Substrate depletion in in-house rat intestinal microsome pools 1 and 2, combined CYP and UGT cofactors; details: Han-Wistar, rat, microsomes, pH 7.4, CL int,u, in-house combined cofactors, 1 μM compound
Method: as §1
The microsomes prepared from the final optimized preparation method (method 8) were measured for CYP content on the day of preparation prior to storage. These microsomes (n = 3 samples prepared on n = 3 separate occasions) were subsequently thawed on ice and pooled for pool 1. The pool 1 microsomes were then assayed for testosterone and 4‐NP metabolite formation. Additional intestinal microsomes were created using the identical methodology with the same number of rat intestinal samples (n = 3 samples prepared on n = 3 occasions) and assayed for testosterone and 4‐NP metabolite formation as well as for CYP content on the day of preparation before storage. The microsomes from this second set of preparations were then thawed and pooled to form pool 2.
as §2

[8] = previous study, corrected for fu inc of this study; cited from earlier work
[9] = Pool 1, FT (1 freeze-thaw cycle)

Compound | Maximal rate of testosterone metabolite formation ([3]; Commercial HW, FT) [pmol/min/mg] | Maximal rate of testosterone metabolite formation ([3]; Commercial SD, FT) [pmol/min/mg] | Maximal rate of testosterone metabolite formation [3, 9] [pmol/min/mg] | Maximal rate of testosterone metabolite formation ([3]; Pool 2, FT) | Maximal rate of testosterone metabolite formation ([3]; Pool 2, Fresh) | Maximal rate of testosterone metabolite formation ([3]; Scraping, FT) | Fold higher mean metabolite formation in pool 2 (vs pool 1) [3] [fold] | also measured
O=[N+]([O-])c1ccc(O)cc1 [4‐NP, 4‐nitrophenol] | – | – | – | – | – | – | – | 4-NP glucuronidation, previously reported [1]: 7 ± 0.81 nmol/min/mg
C[C@]12CC[C@H]3[C@@H](C[C@@H](O)C4=CC(=O)CC[C@@]43C)[C@@H]1CC[C@@H]2O [6β‐OH TEST] | 190 ± 53.5 | 167.2 ± 43.7 | 85.3 ± 32.5 | 187.5 pmol/min/mg and 187.5 ± 77.8 pmol/min/mg | 113.3 pmol/min/mg and 113.3 ± 30.9 pmol/min/mg | 66.1 pmol/min/mg and 66.1 ± 4.8 pmol/min/mg | 2.2 | 6β-OH TEST formation, previously reported [2]: 289 ± 5 pmol/min/mg
C[C@]12CC[C@H]3[C@@H](CCC4=CC(=O)CC[C@@]43C)[C@@H]1C[C@@H](O)[C@@H]2O [16α‐OH TEST] | – | – | – | – | – | – | 2.5 | –
C[C@]12CCC(=O)C=C1CC[C@@H]1[C@@H]2CC[C@]2(C)C(=O)CC[C@@H]12 [Androstenedione] | 314.5 ± 55.3 | 371.6 ± 7.2 | 560.7 ± 6.6 | 548.7 ± 188.7 pmol/min/mg | 429.9 ± 30.9 pmol/min/mg | 457.0 ± 60.4 pmol/min/mg | – | –
Cc1ncc2n1-c1ccc(Cl)cc1C(c1ccccc1F)=NC2 [Midazolam] | – | – | – | – | – | – | – | Main route of elimination (CYP vs UGT cofactors) ([4]; commercial Han Wistar microsomes, individual cofactors): CYP mediated metabolism; microsomal CLint at 1 μM ([4]; CYP cofactors, CYP cofactors only): 18.2 µL/min/mg; microsomal CLint at 1 μM ([4]; Combined cofactors, combined CYP and UGT cofactors): 12.3 µL/min/mg; microsomal CLint at 1 μM ([4]; UGT cofactors, UGT cofactors only): 2.8 µL/min/mg; CL int,u,gut, Combined in-house pools ([5]; mean of pool 1 and pool 2 CL int,u and scaling factors): 6.12 L/h; CL int,u,gut, Pool 1 Mean ([5]; pool 1, pool specific scaling factors, threshold 0.01 l/h): 4.13 L/h; CL int,u,gut, Pool 2 Mean ([5]; pool 2, pool specific scaling factors, threshold 0.01 l/h): 7.36 L/h; fuinc [6]: 0.72; microsomal CLint at 1 μM ([7]; Pool 1, pool 1, 1 mg/ml, CYP and UGT cofactors): 22 µL/min/mg; microsomal CLint at 1 μM ([7]; Pool 2, pool 2, cell marked with footnotes a and b (1 mg/ml and 0.5 mg/ml)): 18.2 µL/min/mg; CL int,u in commercially available Sprague-Dawley microsomes [8]: 8.3 µL/min/mg
